Measurements: patent US12686692B2, “KRas G12D inhibitors” (Mirati Therapeutics, Inc., priority 2020, dated 2026)

Experiments:
[1] = tested on: KRas G12D-mediated Phosphorylation of ERK; assay: Inhibition of KRas G12D-mediated Phosphorylation of ERK in AGS cells; assay type: cell-based; conditions: Homo sapiens; AGS cells expressing G12D, 3 hours, phospho-ERK normalized to GAPDH
Description: AGS cells (ATCC CRL-1739) expressing G12D were grown in DMEM medium supplemented with 10% fetal bovine serum, 10 mM HEPES, and Penicillin/Streptomycin. Cells were plated in tissue culture treated 96 well plates at a density of 40,000 cells/well and allowed to attach for 12-14 hours. Diluted compounds were then added in a final concentration of 0.5% DMSO. After 3 hours, the medium was removed, 150 μl of 4.0% formaldehyde was added and the plates incubated at room temperature for 20 minutes. The plates were washed with PBS, and permeabilized with 150 μL of ice cold 100% methanol for 10 minutes. Non-specific antibody binding to the plates was blocked using 100 μL Licor blocking buffer (Li-Cor Biotechnology, Lincoln NE) for 1 hour at room temperature.
The amount of phospho-ERK was determined using an antibody specific for the phosphorylated form of ERK and compared to the amount of GAPDH. Primary antibodies used for the detection were added as follows: Phospho-ERK(Cell Signaling cs-9101) diluted 1:500 and GAPDH(Millipore MAB374) diluted 1:5000 in Licor block+0.05% Tween 20. The plates were incubated for 2 hours at room temperature. The plates were washed with PBS+0.05% Tween 20.
Secondary antibodies used to visualize primary antibodies were added as follows: Anti-rabbit-680 diluted 1:1000 and Anti-mouse-800 diluted 1:1000 both in Licor block+0.05% Tween20, and were incubated for 1 hour at room temperature. The plates were washed with PBS+0.05% Tween 20. A 100 μl aliquot of PBS was added to each well and the plates were read on a Li-Cor Odyssey CLX plate reader.
The phospho-ERK(Thr202/Tyr204 signal was normalized to the GAPDH signal for each well and percent of DMSO control values were calculated. IC50 values were generated using a 4-parameter fit of the dose response curve.

[2] = biological target: KRas G12D (Homo sapiens, UniProt P01116, G12D); assay: KRas G12D Binding Assay (TR-FRET displacement of labeled tracer); set-up: corresponding to amino acids 1:169, produced at Array BioPharma; biotin (protein is biotinylated); conditions: TR-FRET displacement of Cy5 labelled tracer, biotinylated GDP-loaded KRAS G12D (aa 1:169), 60 minute incubation at 22° C.
Chain of KRas G12D (P01116 1-169 isoform P01116-2 G12D): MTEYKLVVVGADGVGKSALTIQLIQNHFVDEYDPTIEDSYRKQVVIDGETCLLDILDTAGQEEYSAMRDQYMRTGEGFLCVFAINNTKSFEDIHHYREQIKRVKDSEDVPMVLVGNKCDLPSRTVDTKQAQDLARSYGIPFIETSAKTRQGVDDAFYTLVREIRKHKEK
Description: This Example illustrates that exemplary compounds of the present invention bind to KRas G12D and are capable of displacing a labeled tracer ligand occupying the KRas G12D binding site.
The ability of a compound to bind to KRAS G12D was measured using a TR-FRET displacement assay. Biotinylated GDP-loaded recombinant human KRAS G12D (corresponding to amino acids 1:169, produced at Array BioPharma) was incubated with a custom-made Cy5 labelled tracer, europium labelled streptavidin and compound (2% DMSO final) in buffer (50 mM HEPES [pH 7.5], 5 mM MgCl2, 0.005% Tween-20 & 1 mM DTT). After a 60 minute incubation at 22° C., the reaction was measured using a PerkinElmer EnVision multimode plate reader via TR-FRET dual wavelength detection, and the percent of control (POC) calculated using a ratiometric emission factor. […] The POC values were fit to a 4-parameter logistic curve and the IC50 value was determined as the concentration where the curve crosses 50 POC.

Row | SMILES | IC50 [1] [nM] | IC50 [2] [nM]
1 | CCc1cccc2cccc(N3CCc4c(nc(OCC56CCCN5CCC6)nc4N4C[C@H]5CC[C@@H](C4)N5)C3)c12 [Example 10, 4-((1R,5S)-3,8-diazabicyclo[3.2.1]octan-3-yl)-7-(8-ethylnaphthalen-1-yl)-2-((tetrahydro-1H-pyrrolizin-7a(5H)-yl)methoxy)-5,6,7,8-tetrahydropyrido[3,4-d]pyrimidine] | 738 | 1.1
2 | CCc1cccc2cccc(N3CCc4c(nc(OC[C@@H]5CCCN5C)nc4N4C[C@H]5CC[C@@H](C4)N5)C3)c12 [Example 8, 4-((1R,5S)-3,8-diazabicyclo[3.2.1]octan-3-yl)-7-(8-ethylnaphthalen-1-yl)-2-(((S)-1-methylpyrrolidin-2-yl)methoxy)-5,6,7,8-tetrahydropyrido[3,4-d]pyrimidine] | 12600 | 5.5
3 | Oc1cc(N2CCc3c(nc(OCC45CCCN4CCC5)nc3N3C[C@H]4CC[C@@H](C3)N4)C2)c2c(Cl)cccc2c1 [Example 115, 4-(4-((1R,5S)-3,8-diazabicyclo[3.2.1]octan-3-yl)-2-((hexahydro-1H-pyrrolizin-7a-yl)methoxy)-5,6-dihydropyrido[3,4-d]pyrimidin-7(8H)-yl)-5-chloronaphthalen-2-ol] | 118 | 0.6
4 | F[C@H]1CN2CCCC2(COc2nc3c(c(N4CC5CCC(C4)N5)n2)CCN(c2cccc4cccc(C5CC5)c24)C3)C1 (mixture of isomers) [Example 11] | > 16700 | 19.8
5 | CCc1c(F)ccc2cc(O)cc(N3CCc4c(nc(OCC56CCCN5CCC6)nc4N4C[C@H]5CC[C@@H](C4)N5)C3)c12 [Example 119, 4-(4-((1R,5S)-3,8-diazabicyclo[3.2.1]octan-3-yl)-2-((hexahydro-1H-pyrrolizin-7a-yl)methoxy)-5,6-dihydropyrido[3,4-d]pyrimidin-7(8H)-yl)-5-ethyl-6-fluoronaphthalen-2-ol] | 7 | 1.6
6 | CCc1cccc2cccc(N3CCc4c(nc(OCC56CCCN5C(CO)CC6)nc4N4C[C@H]5CC[C@@H](C4)N5)C3)c12 (mixture of isomers) [Example 103, (7a-(((4-((1R,5S)-3,8-diazabicyclo[3.2.1]octan-3-yl)-7-(8-ethylnaphthalen-1-yl)-5,6,7,8-tetrahydropyrido[3,4-d]pyrimidin-2-yl)oxy)methyl)hexahydro-1H-pyrrolizin-3-yl)methanol] | 6220 | 3.9
7 | F[C@H]1CN2CCCC2(COc2nc3c(c(N4CC5CCC(C4)N5)n2)CCN(c2cccc(Cl)c2C(F)(F)F)C3)C1 (mixture of isomers) [Example 48, 4-((1R,5S)-3,8-diazabicyclo[3.2.1]octan-3-yl)-7-(3-chloro-2-(trifluoromethyl)phenyl)-2-((2-fluorotetrahydro-1H-pyrrolizin-7a(5H)-yl)methoxy)-5,6,7,8-tetrahydropyrido[3,4-d]pyrimidine] | 5220 | 5.5
8 | CCc1cccc2cccc(N3CCc4c(nc(OCC56CCCN5C(COC(=O)N(CC)CC)CC6)nc4N4C[C@H]5CC[C@@H](C4)N5)C3)c12 (mixture of isomers) [Example 66, (7a-(((4-((1R,5S)-3,8-diazabicyclo[3.2.1]octan-3-yl)-7-(8-ethylnaphthalen-1-yl)-5,6,7,8-tetrahydropyrido[3,4-d]pyrimidin-2-yl)oxy)methyl)hexahydro-1H-pyrrolizin-3-yl)methyl diethylcarbamate] | 2210 | 4.6
9 | CCc1cccc2cccc(N3CCc4c(nc(OCC56CCCN5C(COC(=O)N5CC[C@H](O)C5)CC6)nc4N4C[C@H]5CC[C@@H](C4)N5)C3)c12 (stereo partly drawn) [Example 105, (7a-(((4-((1R,5S)-3,8-diazabicyclo[3.2.1]octan-3-yl)-7-(8-ethylnaphthalen-1-yl)-5,6,7,8-tetrahydropyrido[3,4-d]pyrimidin-2-yl)oxy)methyl)hexahydro-1H-pyrrolizin-3-yl)methyl (3S)-3-hydroxypyrrolidine-1-carboxylate] | 561 | 2.3
10 | CCc1cccc2cccc(N3CCc4c(nc(OC[C@]56CCCN5[C@@H](COC(=O)N5CCOCC5)CC6)nc4N4C[C@H]5CC[C@@H](C4)N5)C3)c12 [Example 97, ((3R,7aR)-7a-(((4-((1R,5S)-3,8-diazabicyclo[3.2.1]octan-3-yl)-7-(8-ethylnaphthalen-1-yl)-5,6,7,8-tetrahydropyrido[3,4-d]pyrimidin-2-yl)oxy)methyl)hexahydro-1H-pyrrolizin-3-yl)methyl morpholine-4-carboxylate] | 187 | 1.2
11 | CCc1cccc2cccc(N3CCc4c(nc(OCC56CCCN5C(COC(=O)N(C)OC)CC6)nc4N4C[C@H]5CC[C@@H](C4)N5)C3)c12 (mixture of isomers) [Example 68, (7a-(((4-((1R,5S)-3,8-diazabicyclo[3.2.1]octan-3-yl)-7-(8-ethylnaphthalen-1-yl)-5,6,7,8-tetrahydropyrido[3,4-d]pyrimidin-2-yl)oxy)methyl)hexahydro-1H-pyrrolizin-3-yl)methyl methoxy(methyl)carbamate] | 1330 | 5.9
12 | Oc1cc(N2CCc3c(nc(OCC45CCCN4C[C@H](F)C5)nc3N3CC4CCC(C3)N4)C2)c2c(Cl)cccc2c1 (mixture of isomers) [Example 49, 4-(4-((1R,5S)-3,8-diazabicyclo[3.2.1]octan-3-yl)-2-((2-fluorotetrahydro-1H-pyrrolizin-7a(5H)-yl)methoxy)-5,8-dihydropyrido[3,4-d]pyrimidin-7(6H)-yl)-5-chloronaphthalen-2-ol] | 77 | 0.5
13 | Brc1ccc(N2CCc3c(nc(OCC45CCCN4CCC5)nc3N3C[C@H]4CC[C@@H](C3)N4)C2)c2ccccc12 [Example 112, 4-((1R,5S)-3,8-diazabicyclo[3.2.1]octan-3-yl)-7-(4-bromonaphthalen-1-yl)-2-((hexahydro-1H-pyrrolizin-7a-yl)methoxy)-5,6,7,8-tetrahydropyrido[3,4-d]pyrimidine] | > 16700 | 5460
14 | CCc1cccc2cccc(N3CCc4c(nc(OCC56CCCN5C(COC(=O)N5CC[C@@H](OC)C5)CC6)nc4N4C[C@H]5CC[C@@H](C4)N5)C3)c12 (stereo partly drawn) [Example 106, (7a-(((4-((1R,5S)-3,8-diazabicyclo[3.2.1]octan-3-yl)-7-(8-ethylnaphthalen-1-yl)-5,6,7,8-tetrahydropyrido[3,4-d]pyrimidin-2-yl)oxy)methyl)hexahydro-1H-pyrrolizin-3-yl)methyl (3R)-3-methoxypyrrolidine-1-carboxylate] | 5110 | 7.2
15 | Cc1cccc2cccc(N3CCc4c(nc(OCC56CCCN5C[C@H](F)C6)nc4N4CC5CCC(C4)N5)C3)c12 (mixture of isomers) [Example 50, 4-((1R,5S)-3,8-diazabicyclo[3.2.1]octan-3-yl)-2-((2-fluorotetrahydro-1H-pyrrolizin-7a(5H)-yl)methoxy)-7-(8-methylnaphthalen-1-yl)-5,6,7,8-tetrahydropyrido[3,4-d]pyrimidine] | > 16700 | 7.1
16 | F[C@H]1CN2CCCC2(COc2nc3c(c(N4CC5CCC(C4)N5)n2)CCN(c2cccc4cccc(C(F)(F)F)c24)C3)C1 (mixture of isomers) [Example 51, 4-((1R,5S)-3,8-diazabicyclo[3.2.1]octan-3-yl)-2-((2-fluorotetrahydro-1H-pyrrolizin-7a(5H)-yl)methoxy)-7-(8-(trifluoromethyl)naphthalen-1-yl)-5,6,7,8-tetrahydropyrido[3,4-d]pyrimidine] | > 16700 | 16.9
17 | CCc1c(F)ccc2cccc(N3CCc4c(nc(OCC56CCCN5C[C@H](F)C6)nc4N4CC5CCC(C4)N5)C3)c12 (mixture of isomers) [Example 20, 4-((1R,5S)-3,8-diazabicyclo[3.2.1]octan-3-yl)-7-(8-ethyl-7-fluoronaphthalen-1-yl)-2-((2-fluorotetrahydro-1H-pyrrolizin-7a(5H)-yl)methoxy)-5,6,7,8-tetrahydropyrido[3,4-d]pyrimidine (racemic, trans)] | 539 | 2.8
